The subject of this test is rat astrocytes. The test is described as follows: Western blot of glial activation responses in rat astrocyte cultures. Format: cell-based. As to conditions: for GFAP levels: activated rat astrocytes. The method, then: FIG. 2. Selective effects of compound 1 (MW01-070C) on glial activation responses and gene-regulating protein kinase pathways. BV-2 cells and rat astrocytes were treated with control buffer (C) or stimulated with LPS or Aβ1-42 peptide in the presence or absence of compound 1, and cell lysates were analyzed by Western blots. (A) Astrocytes treated with LPS and compound 1 show concentration-dependent inhibition of iNOS and IL-1β production but not GFAP. (B) Astrocytes treated with A β1-42 and compound 1 (10 μM) show inhibition of iNOS and IL-1β but not apoE and COX-2. (C) BV-2 cells treated with LPS and compound 1 (10 μM) show inhibition of phosphorylated (p-) CREB but not p-p38 and p-ATF2, as assayed with antibodies that are specific for the phosphorylated forms of the proteins. Data are expressed as percent control (mean±SD; n=3 determinations).
The rationale for using BV-2 cells in high throughput screening was the paucity of well-characterized human microglial cell lines, and the relevant activation responses and signaling pathways reflect those seen in human and rodent primary microglial cultures. Compounds were tested for their effects on NO accumulation in conditioned media of LPS-stimulated BV-2 cells by measurement of nitrite production by the Griess assay as a read-out for iNOS activity, as described previously. Stock solutions of compounds were prepared in dimethylsulfoxide (DMSO) or in water. When stock solutions were prepared in DMSO, control wells contained the same final concentration of DMSO as the compound-containing wells. […] Solutions of compounds for cell treatments were diluted to a 10× final concentration by dilution of stock solutions in αMEM media. The commercially available drugs tested were: compound 5 (KN93 from Alexis); compound 6 (pyrrolidinedithiocarbamate or PDTC from Sigma), compound 7 (SB203580 from Alexis Corporation), compound 8 (PD98059 from Alexis Corporation), and compound 9 (UO126 from Cell Signaling). SB203580, U0126 and PD98059, PDTC, and KN93 are used as pathway-selective inhibitors of p38 MAPK, MEK1/2, NFκB, and CaMKII signaling pathways. Respectively, Western blots of cell lysates were done with the following antibodies: monoclonal anti-iNOS (1:1000 dilution, Transduction Labs); polyclonal anti-rat IL-1β (1:1000 dilution, R&D Systems, Inc.); monoclonal anti-glial fibrillary acidic protein (GFAP) (1:[…] dilution, Sigma); polyclonal anti-rat alioE (1:15,000 dilution) prepared as described; polyclonal anti-COX-2 (1:500 dilution) and monoclonal anti-phosphoATF2 (1:1000 dilution) from Santa Cruz Biotechnology, polyclonal anti-phosphoCREB (1:1000 dilution), and polyclonal anti-phosphop38 MAPK (1:1000 dilution). Reconstituted enzyme assays were done as described s. The sources of protein kinases were: bovine heart PKA from Promega, rat brain PKC from Calbiochem, rat CaMKII from New England Biolabs, chicken gizzard MLCK prepared as described, and a p38 MAP kinase kit containing recombinant Xenopus p38-MAPK and its human substrate from Upstate Biotechnology. The catalytic domains of these protein kinases retain a high level of amino acid sequence identity across mammalian species, consistent with the lack of documented major differences across species for the in vitro catalytic activity of a given kinase.
FIG. 5. Effects of two compounds on LPS-stimulated INOS and IL-1β production in rat astrocyte cultures. Astrocyte cultures were incubated for 24 hr with control buffer (C), LPS (100 ng/ml) alone, or LPS in the presence of increasing concentrations (0.1, 0.3, 1, 3, 10 μM) of MW01-070C (panel A) or MW01-196A (panel B). The levels of iNOS, proIL-1β, and GFAP were determined by Western blot of cell lysates.
FIG. 6. Effects of MW01-070C on astrocytes treated with various activating stimuli, and analysis of multiple activation responses. Astrocyte cultures were stimulated for 12 hr with Aβ (10 μM), S100B (0.5 μM), or LPS (100 ng/ml) in the absence (−) or presence (+) of MW01-070C (10 μM). […]
(A western blot detects proteins with antibodies after separation by electrophoresis.)

Where [1] appears, read: LPS-stimulated rat astrocytes, 24 hr, Western blot.
[2] abbreviates: LPS-stimulated rat astrocytes, 24 hr, Western blot, listed as 1.
Setting [3] is: activated astrocytes, compound 10 μM.
Where [4] appears, read: astrocytes stimulated by S100 (0.5 μM), 12 hr, compound 10 μM.
[5] abbreviates: glia stimulated by Aβ1-42, compound 10 μM.

SMILES strings stand for the structures.

As to `N=c1cc2c(nn1CCCCCCCCCCC(=O)N1CCN(c3ncccn3)CC1)-c1ccccc1CC2` [MW01-070C], the IL-1β production result by setting is: under setting [1], “dose dependent inhibition”; under setting [2], “inhibits”; under setting [4], “inhibits”; under setting [5], “inhibits”. In addition, the iNOS production entry under setting [1] is on record as “dose dependent inhibition”, the iNOS production entry under setting [2] is “inhibits”, the iNOS production result under setting [4] is reported as “inhibits” and the iNOS production result under setting [5] was “inhibits”. In addition, the COX-2 levels entry under setting [3] was “no effect”. Further, the apoE production entry under setting [3] is “no effect”. Further, the GFAP levels entry is, setting by setting: (Western blot) “no change”; (Western blot, listed as 1) “not changed”.
